Test results from article PMC9996038, “Binding of RPR260243 at the intracellular side of the hERG1 channel pore domain slows closure of the helix bundle crossing gate” (Frontiers in Molecular Biosciences, 2023).

Biological target: T1, hERG1a (human ether-à-go-go-related gene type 1, Kv11.1) (Homo sapiens, UniProt Q12809)
T1 construct: gene KCNH2; EC50 on split hERG1a (residues 1–545 VSD module + residues 546–1,159 pore module, coexpressed)
Assay: two-electrode voltage clamp of channels expressed in Xenopus oocytes (slowing of deactivation)
Format: cell-based

T1 sequence (Q12809 546-1159): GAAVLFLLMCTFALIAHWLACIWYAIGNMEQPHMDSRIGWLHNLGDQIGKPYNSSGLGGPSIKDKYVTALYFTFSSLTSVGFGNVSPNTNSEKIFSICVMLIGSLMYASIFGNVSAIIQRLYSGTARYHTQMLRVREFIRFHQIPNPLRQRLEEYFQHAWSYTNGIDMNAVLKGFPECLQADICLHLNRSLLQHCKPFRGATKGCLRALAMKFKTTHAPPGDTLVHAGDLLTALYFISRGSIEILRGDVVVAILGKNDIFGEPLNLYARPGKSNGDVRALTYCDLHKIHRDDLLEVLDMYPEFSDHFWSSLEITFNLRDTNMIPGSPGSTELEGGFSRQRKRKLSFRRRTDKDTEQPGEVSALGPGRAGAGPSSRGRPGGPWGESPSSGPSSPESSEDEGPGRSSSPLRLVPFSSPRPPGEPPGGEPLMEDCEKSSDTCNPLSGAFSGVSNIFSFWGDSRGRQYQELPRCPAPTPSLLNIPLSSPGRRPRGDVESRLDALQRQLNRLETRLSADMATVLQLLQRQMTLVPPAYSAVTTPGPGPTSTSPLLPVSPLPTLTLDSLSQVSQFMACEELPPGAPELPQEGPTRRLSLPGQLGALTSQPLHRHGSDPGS
T1 sequence (Q12809 1-545 partner): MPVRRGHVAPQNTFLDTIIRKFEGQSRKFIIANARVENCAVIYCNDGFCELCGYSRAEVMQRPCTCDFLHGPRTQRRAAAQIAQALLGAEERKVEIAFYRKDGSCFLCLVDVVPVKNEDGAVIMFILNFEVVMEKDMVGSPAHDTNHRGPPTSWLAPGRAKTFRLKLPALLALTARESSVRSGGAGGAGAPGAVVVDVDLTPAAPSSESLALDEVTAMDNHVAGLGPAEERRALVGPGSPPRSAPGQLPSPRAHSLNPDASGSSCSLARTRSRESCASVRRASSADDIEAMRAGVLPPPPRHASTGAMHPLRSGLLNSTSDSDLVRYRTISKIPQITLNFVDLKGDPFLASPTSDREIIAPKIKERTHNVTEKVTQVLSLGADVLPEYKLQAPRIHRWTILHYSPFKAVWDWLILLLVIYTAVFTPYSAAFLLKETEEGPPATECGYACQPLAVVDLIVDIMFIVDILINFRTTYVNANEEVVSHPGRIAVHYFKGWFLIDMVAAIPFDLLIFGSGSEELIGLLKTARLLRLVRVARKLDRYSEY

**Q.** With COc1ccc2nccc(C(=O)CC[C@@H]3CCN(CC#Cc4cc(F)cc(F)c4F)C[C@@H]3C(=O)O)c2c1 [RPR, (3R,4R)-4-[3-(6-methoxyquinolin-4-yl)-3-oxo-propyl]-1-[3-(2,3,5-trifluorophenyl)-prop-2-ynyl]-piperidine-3-carboxylic acid] as the molecule, how does the EC50 read?
**A.** The EC50 was 7.9 ± 1 µM.
